Inconclusive results are not listed.
These compounds were tested against Virion infectivity factor (Human immunodeficiency virus type 1 group M subtype B (isolate BH10)) + Virion infectivity factor (Human immunodeficiency virus type 1 group M subtype B (isolate BRU/LAI)) + Virion infectivity factor (Human immunodeficiency virus type 1 group M subtype B (isolate PCV12)) + Virion infectivity factor (Human immunodeficiency virus type 1 group M subtype B (isolate HXB2)) + DNA dC->dU-editing enzyme APOBEC-3G (Homo sapiens) (UniProt P69720+P69721+P69722+P69723+Q9HC16) (assay: inhibitors of Vif binding to APOBEC3G peptide, primary screen, biochemical, TR-FRET, GST-Vif 1-94, biotin-A3G peptide, dose response retest (AID 1117319);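 note: Vif residues 1-94 fused to GST binding biotinylated APOBEC3G peptide 110-148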).
With `Oc1ccc(/C=N/NP(=S)(c2ccccc2)c2ccccc2)c(O)c1O` the IC50 was 17.6 µM.
Work on `Cc1nc2c(=O)[nH]c(=S)[nH]c2[nH]c1=O` yielded an IC50 of 50.7 µM.
With `Cc1nc2cc(N=NC3=C(O)CCCC3=O)ccc2s1` the IC50 was 1.28 µM.
Work on `COc1cc(C2Nc3ccccc3C(=O)N2c2ccccc2)ccc1O` (centres undefined) yielded an IC50 of 39.4 µM.
`COC(=O)\C(C(C)=O)=C(/C=C/C=C/C=C/N(C)C)N(C)C` was tested, and the IC50 was 2.76 µM.
Compound `CCC(=O)OCCNc1cc(Sc2nc3ccccc3[nH]2)c2nonc2c1[N+](=O)[O-]` has an IC50 of 9.48 µM.
For `CCOC(=O)c1cnn2c(N)c(C#N)nnc12`, the IC50 was 21.4 µM.
In the case of `C=CCN1CCc2cccc3c2[C@H]1Cc1ccc(O)c(O)c1-3`, the IC50 is reported as 14.8 µM.
Compound `CNc1ccc(Br)cc(C(=O)/C=C/c2cc(OC)ccc2OC)c1=O` has an IC50 of 3.6 µM.
`CCOc1ccccc1C(O)C1=CC(=O)c2ccccc2C1=O` (centres undefined) gave an IC50 of 7.61 µM.
`N=C1/C(=C\c2ccc(SCc3ccco3)o2)C(=O)N=C2SC=NN12` was tested, and the IC50 was 1.21 µM.
For `O=c1c(O)cccc2cc(O)c(O)c(O)c12`, the IC50 was 1.03 µM.
In the case of `O=C(CCCN1C(=O)/C(=C\c2ccco2)SC1=S)Nc1ccc2ccccc2c1`, the IC50 is reported as 7.25 µM.
Work on `CC(C)CN(C(=O)CN1CCN(c2ccc(O)cc2)CC1)c1c(N)n(CC(C)C)c(=O)[nH]c1=O` yielded an IC50 of 12.3 µM.
With `COc1nc(N(c2ccccc2)c2ccccc2)nc(-n2ccnc2)n1` the IC50 was 26.3 µM.
`Cc1cc2c(c(=O)o1)C(c1ccc([N+](=O)[O-])o1)C(C#N)=C(N)O2` (centres undefined) gave an IC50 of 2.53 µM.
`COC(=O)C1=C(C)NC(=O)/C1=C\c1ccco1` gave an IC50 of 6.12 µM.
For `Cc1cccc(N/N=C/c2ccc(O)c(O)c2O)c1`, the IC50 was 9.51 µM.
Work on `O=C(NCCCO)Nc1ccc2nc(-c3ccco3)c(-c3ccco3)nc2c1` yielded an IC50 of 0.26 µM.
Work on `Cc1cc2nc(C)n(CCCNC(=O)Nc3ccc(F)cc3)c2cc1C` yielded an IC50 of 47.6 µM.
With `NS(=O)(=O)c1ccc(N/N=C/c2ccc(O)c(O)c2O)c([N+](=O)[O-])c1` the IC50 was 0.92 µM.
Work on `COc1ccc(NC(=O)c2ccccc2NC(=O)CSc2ccc(Cl)cc2)cc1` yielded an IC50 of 57.7 µM.
`N#Cc1c(-c2ccco2)c2c([nH]c1=S)CCCC2` showed an IC50 of 12.1 µM.
`CCOc1ccc(CCNC(=O)C2CC(C)=CCC2C(=O)O)cc1OCC` (centres undefined) gave an IC50 of 56.6 µM.
For `O=C1NC(c2cccc(Br)c2)=N/C1=C\c1ccco1`, the IC50 was 9.01 µM.
Work on `Cc1ccc(C)n1-c1ccc(C(=O)O)cc1` yielded an IC50 of 5.12 µM.
For `O=C(NC1CC1)c1cc(-c2ccco2)nc2ccccc12`, the IC50 was 2.53 µM.
With `NC(=O)c1c(NC(=O)c2ccc(S(=O)(=O)N3CCOCC3)cc2)sc2c1CCCCC2` the IC50 was 98.3 µM.
Compound `CCC(C)[C@@H](C(=O)Nc1ccc2c(c1)OCO2)N1Cc2ccccc2C1=O` (some centres undefined) has an IC50 of 98.4 µM.
`O=C(N/N=C/C=C\c1ccco1)c1cccnc1` showed an IC50 of 4.09 µM.
`O=C(Nc1ccc2nc(-c3ccco3)c(-c3ccco3)nc2c1)N1CCCCCC1` gave an IC50 of 0.58 µM.
Compound `O=C(Nc1ccc(Cl)c(-c2nc3ccccc3[nH]2)c1)c1cccnc1` has an IC50 of 79.7 µM.
With `CCCSC1=N/C(=C\C=C\c2ccco2)C(=O)S1` the IC50 was 3.79 µM.
In the case of `CCOc1cc(N2CCOCC2)c(OCC)cc1NC(C)C(=O)N1CCN(CC)CC1` (centres undefined), the IC50 is reported as 23.9 µM.
`Oc1ccc(C[C@H]2NCCc3cc(O)c(O)cc32)cc1O` was tested, and the IC50 was 9.77 µM.
For `CN1c2ccsc2C(O)=C(C(=S)Nc2ccc(F)c(Cl)c2)S1(=O)=O`, the IC50 was 1.12 µM.
Work on `CCCCNC(=O)c1ccc2nc(-c3ccco3)c(-c3ccco3)nc2c1` yielded an IC50 of 1.19 µM.
`O=c1cc2oc3cc(O)c(O)cc3c(-c3ccccc3O)c-2cc1O` showed an IC50 of 0.84 µM.
`Cc1c(C(=O)O)cccc1-n1c(C)cc(/C=N/Nc2ccc([N+](=O)[O-])cn2)c1C` gave an IC50 of 12.6 µM.
In the case of `CCCn1nc(C(=O)Nc2cc(C(=O)OC)ccc2C)c2ccccc2c1=O`, the IC50 is reported as 86.5 µM.
Compound `CCOC(=O)C1CCN(C(c2cccs2)c2sc3nc(C)nn3c2O)CC1` (centres undefined) has an IC50 of 55.7 µM.
In the case of `C=CCSc1nnc(NC(=O)CSc2nnc(C)s2)s1`, the IC50 is reported as 90.6 µM.
In the case of `CC(C)CCNC(=O)c1ccc2c(SCC(=O)O)c3c(nc2c1)CCC3`, the IC50 is reported as 59.8 µM.
In the case of `NC(=O)/C(=C/c1ccco1)C(N)=S`, the IC50 is reported as 9.35 µM.
With `O=C1NC(=O)N(Cc2ccc(F)cc2)C(=O)/C1=C\C=C\c1ccco1` the IC50 was 19.2 µM.
`O=C(NC(=S)Nc1cccc(S(=O)(=O)NC2=NCCC2)c1)c1cc(-c2ccco2)nc2ccccc12` showed an IC50 of 8.99 µM.
`O=C1CC(c2ccco2)CC(O)=C1C=Nc1cc(Cl)cc(Cl)c1` (centres undefined) was tested, and the IC50 was 4.12 µM.
Work on `Cc1cc(C(=O)CN2C(=O)c3ccccc3S2(=O)=O)c(C)n1CC1CCCO1` (centres undefined) yielded an IC50 of 51.2 µM.
Compound `CC1=Nc2nc(N3CCCCC3)c(C#N)c3c4c(nc(c23)N1)N(c1ccc(C(C)C)cc1)C(=O)C4` has an IC50 of 5.27 µM.
Compound `Oc1cccc(/C=N/NC(=S)NCCN2CCOCC2)c1O` has an IC50 of 12.4 µM.
Compound `Cc1ccc(Cn2c(=S)[nH]c3ccc(N4CCOCC4)cc3c2=O)o1` has an IC50 of 0.61 µM.
`CC(C)N1C(=O)CC(Nc2ccc(N3CCOCC3)cc2)C1=O` (centres undefined) gave an IC50 of 2.9 µM.
`CCN1CCN(C2=NC(=O)/C(=C/c3ccc(C)o3)S2)CC1` was tested, and the IC50 was 3.48 µM.
In the case of `Cc1ccc(S(=O)(=O)OCC(=O)Nc2ccc(C(=O)O)c(O)c2)cc1`, the IC50 is reported as 64.1 µM.
`C=CC1=C(C(=O)O)N2C(=O)C(NC(=O)Cc3ccccc3)C2SC1` (centres undefined) was tested, and the IC50 was 11.5 µM.
Compound `CC1(C)CC(Nc2ccc(Nc3ccccc3)cc2)CC(C)(C)N1` has an IC50 of 7.13 µM.
`Cc1cc(C(=O)CSc2nnnn2-c2ccccc2)c(C)n1CC1CCCO1` (centres undefined) was tested, and the IC50 was 9.78 µM.
`O=C(Cc1ncn[nH]1)NCCc1ccccc1` showed an IC50 of 96.9 µM.
Work on `CN1CCC(N(C)C(=O)COc2ccccc2-c2ccccc2)CC1` yielded an IC50 of 10.8 µM.
`Cc1cccc2cc(-c3ccccc3)c(-c3ccccc3)c[n+]12` was tested, and the IC50 was 6.83 µM.
Compound `O=C1CC(c2ccco2)CC(O)=C1C=NCC1CCNCC1` (centres undefined) has an IC50 of 13.5 µM.
In the case of `COC(Cc1nnc(SC)n1-c1ccc(Cl)cc1)OC`, the IC50 is reported as 43 µM.
Work on `O=C(O)c1ccc2c(c1)C1C=CCC1C(c1ccncc1)N2` (centres undefined) yielded an IC50 of 3.85 µM.
`C/C(=C\C(=O)c1ccc(C)cc1)Nc1cccc(O)c1` gave an IC50 of 53.3 µM.
In the case of `Cc1noc(/C=C/c2ccco2)c1S(=O)(=O)N1CCC(C(=O)N2c3ccccc3CC2C)CC1` (centres undefined), the IC50 is reported as 11.9 µM.
In the case of `O=[N+]([O-])c1cc2no[n+]([O-])c2cc1N1CCCCC1`, the IC50 is reported as 7.67 µM.
Work on `O=[N+]([O-])c1cc(CN2CCCC2)c2cccnc2c1O` yielded an IC50 of 2.48 µM.
Compound `O=C1CC(/C=C/c2ccco2)=Nc2ccccc2N1` has an IC50 of 1.69 µM.
In the case of `COCCN=c1scc(-c2cccs2)n1/N=C/c1ccc(O)c(O)c1O`, the IC50 is reported as 2.37 µM.
With `c1coc(-c2nc3ccccc3nc2-c2ccco2)c1` the IC50 was 1.39 µM.
`O=C1c2cccnc2C(Nc2ccccc2)N1Cc1ccco1` (centres undefined) was tested, and the IC50 was 22.9 µM.
Compound `Cc1cc(C)cc(Nc2ccc(C(=O)O)cc2N)c1` has an IC50 of 26.1 µM.
`COc1ccc(OC)c(NC(=O)NCc2ccc(F)cc2)c1` was tested, and the IC50 was 58.5 µM.
Compound `Cc1oc(-c2ccc(Cl)cc2)cc1-c1nn2c(-c3ccoc3C)nnc2s1` has an IC50 of 1.04 µM.
For `NCCc1c[nH]c2ccccc12`, the IC50 was 1.66 µM.
For `Nc1cc(N)c(OCC(F)(F)F)cc1OCC(F)(F)F`, the IC50 was 9.47 µM.
For `CCC(c1nnnn1C(C)(C)CC)N(CCCO)Cc1cc2cc(C)cc(C)c2[nH]c1=O` (centres undefined), the IC50 was 0.49 µM.
Compound `O=C(Nc1cccc(C(F)(F)F)c1)c1ccc2nc(-c3ccco3)c(-c3ccco3)nc2c1` has an IC50 of 0.69 µM.
`O=[N+]([O-])c1ccc(N/N=C/c2ccc(O)c(O)c2O)c(S(=O)(=O)N2CCOCC2)c1` showed an IC50 of 1.14 µM.
Compound `O=C(CC1C(=O)NCCN1Cc1ccc(F)cc1)NCCN1CCCc2ccccc21` (centres undefined) has an IC50 of 97.4 µM.
Work on `CCn1c(SCC(=O)OC)nc2sc3c(c2c1=O)CCC3` yielded an IC50 of 12.7 µM.
Work on `O=c1cc(CO)oc(C(Nc2ccccn2)c2ccc(F)cc2)c1O` (centres undefined) yielded an IC50 of 85.7 µM.
`COc1ccc(/C=N/NC(=O)CNc2n[nH]c(=O)[nH]c2=O)cc1OC` was tested, and the IC50 was 42.6 µM.
In the case of `COc1cc(C2C(C(=O)c3ccco3)=C(O)C(=O)N2c2cc(C)on2)cc(Br)c1O` (centres undefined), the IC50 is reported as 26.5 µM.
